{
  "source": "paper PMC5145814",
  "about": "(Molecular Cell, 2016)",
  "key": {"[1]": {"target": "T1, RFS-1/RIP-1 (Caenorhabditis elegans, UniProt P34348)", "T1 sequence (P34348 1-245)": "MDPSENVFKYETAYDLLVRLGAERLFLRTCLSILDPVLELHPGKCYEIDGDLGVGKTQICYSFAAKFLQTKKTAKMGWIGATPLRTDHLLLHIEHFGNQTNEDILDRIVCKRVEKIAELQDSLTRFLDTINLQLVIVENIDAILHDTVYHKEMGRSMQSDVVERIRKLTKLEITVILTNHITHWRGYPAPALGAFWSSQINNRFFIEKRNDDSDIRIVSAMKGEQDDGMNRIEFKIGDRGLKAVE", "T1 sequence (Q21621 1-209 partner)": "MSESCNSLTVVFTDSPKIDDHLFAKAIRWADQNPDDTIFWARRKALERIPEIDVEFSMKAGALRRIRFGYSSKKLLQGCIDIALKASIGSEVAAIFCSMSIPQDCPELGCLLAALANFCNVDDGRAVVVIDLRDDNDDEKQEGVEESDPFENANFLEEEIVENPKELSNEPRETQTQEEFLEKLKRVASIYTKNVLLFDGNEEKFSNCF", "test": "stopped-flow Cy3 fluorescence, binding to RAD-51-ssDNA filament […]' end", "format": "biochemical", "conditions": "25°C; 50 nM RFS-1/RIP-1 pre-incubated with ADP; 1 μM RAD-51, 15 nM 5'-Cy3-43-mer"}, "[2]": {"target": "T2, RAD-51 (Caenorhabditis elegans, UniProt G5EGG8)", "T2 sequence (G5EGG8 1-357)": "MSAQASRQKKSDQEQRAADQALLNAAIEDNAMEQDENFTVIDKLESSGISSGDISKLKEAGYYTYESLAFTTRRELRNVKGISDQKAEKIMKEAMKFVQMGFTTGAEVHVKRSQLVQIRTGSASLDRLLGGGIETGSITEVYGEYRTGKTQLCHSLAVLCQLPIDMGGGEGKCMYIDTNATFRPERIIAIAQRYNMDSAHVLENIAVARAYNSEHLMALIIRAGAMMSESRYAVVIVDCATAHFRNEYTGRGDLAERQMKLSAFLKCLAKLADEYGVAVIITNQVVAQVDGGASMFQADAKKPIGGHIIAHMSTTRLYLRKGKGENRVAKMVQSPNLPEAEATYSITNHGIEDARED", "test": "fluorescence titration, fixed TNP-ATP concentration", "format": "binding", "conditions": "25°C; fluorescent ATP analog; labelled compound"}},
  "data": [
    {"compound": "Nc1ncnc2c1ncn2[C@@H]1O[C@H](COP(=O)(O)OP(=O)(O)O)[C@@H](O)[C@H]1O", "note": "[ADP]", "values": [
      {"measurement": "Δ Cy3 fluorescence", "setting": "[1]", "result": "RFS-1/RIP-1 was pre-incubated with ADP (Figures 5C and 5D)"}
    ]},
    {"compound": "TNP-ATP", "values": [
      {"measurement": "Kd", "setting": "[2]", "result": "~3.5", "unit": "µM"}
    ]}
  ]
}
